In patent publication US20200276154A1, “COMPOSITION FOR PROMOTING ADIPOCYTE DIFFERENTIATION OR ADIPONECTIN, COMPRISING TRIMETHOXY PHENYL COMPOUND” (AMOREPACIFIC CORPORATION, priority 2017, published 2020):

What was measured:
Assay type in all cases: cell-based, human
[1] = system: adiponectin (Adipoq) mRNA in hSCFs; assay: mRNA expression of adiponectin by real-time quantitative PCR (RT-qPCR); details: compared with positive control groups KA 400 μM, CA 60 μM, GC 30 μM
Procedure: Total RNA was extracted by treating the hSCFs cultured in Example 1 with a composition containing PAC-2 at various concentrations (μM) or KA (400 μM), CA (60 μM) and GC (30 μM) as positive control groups using a TRIzol reagent (Life Technologies, Carlsbad, Calif., USA) according to the manufacturer's instructions. 1 μg of total RNA was utilized to synthesize complementary DNAs (cDNAs) using the RevertAid first strand cDNA synthesis kit (Thermo Scientific, Pittsburgh, Pa., USA). About 1 μg of the cDNA sample and each TaqMan® probe (Life Technologies, Carlsbad, Calif., USA) were diluted in a reaction mixture of the Quantitect probe PCR kit (QIAGEN, Valencia, Calif., USA) and PCR was conducted using the 7500 fast real-time PCR system (Life Technologies, Carlsbad, Calif., USA). The TaqMan® probe was glyceraldehyde-3-phosphate dehydrogenase (GAPDH; Part #4352339E). All data were acquired from three independent experiments and are presented as fold changes relative to the GAPDH control group.

[2] = system: secreted adiponectin from hSCFs; assay: Quantitative analysis of adiponectin production by ELISA; details: culture medium, compared with positive control groups KA 400 μM, CA 60 μM, GC 30 μM
Procedure: The hSCFs cultured in Example 1 were treated with KA (400 μM), CA (60 μM) or GC (30 μM) as positive control groups or a composition containing PAC-2 at various concentrations. The culture medium was collected and centrifuged at 13,000 rpm for 15 minutes to remove any debris. The secreted adiponectin was measured using an adiponectin ELISA kit (Enzo Life Sciences, Farmingdale, N.Y., USA) according to the manufacturer's instructions.

hSCFs = assay: Quantitative analysis of adipocyte differentiation by Oil Red O (ORO) staining; details: 14 days differentiation, compared with KA 400 μM, CA 60 μM, GC 30 μM
Procedure: Human subcutaneous fat cells (hereinafter, hSCFs) and a subcutaneous preadipocyte differentiation medium were purchased from ZenBio Inc. (NC, USA). The cells were cultured in a humidified 5% CO2 incubator for 7 days.
To induce differentiation, the hSCFs were cultured further for 14 days in a Dulbecco's modified Eagle's medium (DMEM; Lonza, MD, USA) supplemented with 10% fetal bovine serum (FBS, PAA, Pasching, Austria), 10 μg/mL insulin (Sigma-Aldrich, MO, USA), 0.5 mM 3-isobutyl-1-methylxanthine (IBMX; Sigma-Aldrich, St. Louis, Mo., USA), 1 μM dexamethasone (DEX, Sigma-Aldrich, St. Louis, Mo., USA) and 1 μM troglitazone (Sigma-Aldrich, St. Louis, Mo., USA) while replacing the medium every other day.
The hSCFs cultured in Example 1 were differentiated for a total of 14 days by treating with a composition containing PAC-2 at various concentrations (μM) or with KA (400 μM), CA (60 μM) or GC (30 μM) as positive control groups. Then, after washing twice with cold PBS (phosphate-buffered saline), the cells were fixed in 3.7% formaldehyde (Sigma-Aldrich, St. Louis, Mo., USA) for 1 hour. The fixed hSCFs were washed with 60% propylene glycol (Sigma-Aldrich, St. Louis, Mo., USA) in PBS and were treated with Oil Red 0 (0.3% Oil Red 0 in 60% propylene glycol; Sigma-Aldrich, St. Louis, Mo., USA) for 30 minutes. The cells were washed with 85% propylene glycol thrice and then rinsed with tap water. […]

## COc1cc(/C=C/C(=O)OCc2cc(=O)c(O)co2)cc(OC)c1OC [PAC-2, 3-(3,4,5-trimethoxyphenyl)-acrylic acid 5-hydroxy-4-oxo-4H-pyran-2-ylmethyl ester]
[1]; 25 μM
  mRNA expression level of adiponectin: ≥ 3 times
[1]; 50 μM
  mRNA expression level of adiponectin: ≥ 5 times
[2]; 25 μM
  amount of the secreted adiponectin: ≥ 3 times
[2]; 50 μM
  amount of the secreted adiponectin: ≥ 7 times
hSCFs; 25 μM
  number of Oil Red O stained cells: remarkably increased number of stained cells
hSCFs; 50 μM
  number of Oil Red O stained cells: remarkably increased number of stained cells
